Drawing on patent US12589156B2, “Benzimidazole and benzimidazolone based protac compounds for the targeted degradation of leucine rich repeat kinase 2 (LRRK2)” (Arvinas Operations, Inc., priority 2023, dated 2026), this text covers DC50 and Dmax for 15 compounds.

Bounds are passed on as bounds.

By DC50 is commonly meant the concentration at which degradation of the target reaches its halfway point. Read a low DC50 as degradation at low concentration. By Dmax is commonly meant the greatest extent of degradation seen. A lower Dmax goes with shallow degradation.

In the assay the target is T1, WT LRRK2 (Homo sapiens, UniProt Q5S007).
T1 construct: endogenous in cells; host or cells: HEK293 (endogenous LRRK2 gene knock-in tagged with HiBit; stably expressing CMV-driven firefly luciferase)
T1 sequence (Q5S007 whole entry): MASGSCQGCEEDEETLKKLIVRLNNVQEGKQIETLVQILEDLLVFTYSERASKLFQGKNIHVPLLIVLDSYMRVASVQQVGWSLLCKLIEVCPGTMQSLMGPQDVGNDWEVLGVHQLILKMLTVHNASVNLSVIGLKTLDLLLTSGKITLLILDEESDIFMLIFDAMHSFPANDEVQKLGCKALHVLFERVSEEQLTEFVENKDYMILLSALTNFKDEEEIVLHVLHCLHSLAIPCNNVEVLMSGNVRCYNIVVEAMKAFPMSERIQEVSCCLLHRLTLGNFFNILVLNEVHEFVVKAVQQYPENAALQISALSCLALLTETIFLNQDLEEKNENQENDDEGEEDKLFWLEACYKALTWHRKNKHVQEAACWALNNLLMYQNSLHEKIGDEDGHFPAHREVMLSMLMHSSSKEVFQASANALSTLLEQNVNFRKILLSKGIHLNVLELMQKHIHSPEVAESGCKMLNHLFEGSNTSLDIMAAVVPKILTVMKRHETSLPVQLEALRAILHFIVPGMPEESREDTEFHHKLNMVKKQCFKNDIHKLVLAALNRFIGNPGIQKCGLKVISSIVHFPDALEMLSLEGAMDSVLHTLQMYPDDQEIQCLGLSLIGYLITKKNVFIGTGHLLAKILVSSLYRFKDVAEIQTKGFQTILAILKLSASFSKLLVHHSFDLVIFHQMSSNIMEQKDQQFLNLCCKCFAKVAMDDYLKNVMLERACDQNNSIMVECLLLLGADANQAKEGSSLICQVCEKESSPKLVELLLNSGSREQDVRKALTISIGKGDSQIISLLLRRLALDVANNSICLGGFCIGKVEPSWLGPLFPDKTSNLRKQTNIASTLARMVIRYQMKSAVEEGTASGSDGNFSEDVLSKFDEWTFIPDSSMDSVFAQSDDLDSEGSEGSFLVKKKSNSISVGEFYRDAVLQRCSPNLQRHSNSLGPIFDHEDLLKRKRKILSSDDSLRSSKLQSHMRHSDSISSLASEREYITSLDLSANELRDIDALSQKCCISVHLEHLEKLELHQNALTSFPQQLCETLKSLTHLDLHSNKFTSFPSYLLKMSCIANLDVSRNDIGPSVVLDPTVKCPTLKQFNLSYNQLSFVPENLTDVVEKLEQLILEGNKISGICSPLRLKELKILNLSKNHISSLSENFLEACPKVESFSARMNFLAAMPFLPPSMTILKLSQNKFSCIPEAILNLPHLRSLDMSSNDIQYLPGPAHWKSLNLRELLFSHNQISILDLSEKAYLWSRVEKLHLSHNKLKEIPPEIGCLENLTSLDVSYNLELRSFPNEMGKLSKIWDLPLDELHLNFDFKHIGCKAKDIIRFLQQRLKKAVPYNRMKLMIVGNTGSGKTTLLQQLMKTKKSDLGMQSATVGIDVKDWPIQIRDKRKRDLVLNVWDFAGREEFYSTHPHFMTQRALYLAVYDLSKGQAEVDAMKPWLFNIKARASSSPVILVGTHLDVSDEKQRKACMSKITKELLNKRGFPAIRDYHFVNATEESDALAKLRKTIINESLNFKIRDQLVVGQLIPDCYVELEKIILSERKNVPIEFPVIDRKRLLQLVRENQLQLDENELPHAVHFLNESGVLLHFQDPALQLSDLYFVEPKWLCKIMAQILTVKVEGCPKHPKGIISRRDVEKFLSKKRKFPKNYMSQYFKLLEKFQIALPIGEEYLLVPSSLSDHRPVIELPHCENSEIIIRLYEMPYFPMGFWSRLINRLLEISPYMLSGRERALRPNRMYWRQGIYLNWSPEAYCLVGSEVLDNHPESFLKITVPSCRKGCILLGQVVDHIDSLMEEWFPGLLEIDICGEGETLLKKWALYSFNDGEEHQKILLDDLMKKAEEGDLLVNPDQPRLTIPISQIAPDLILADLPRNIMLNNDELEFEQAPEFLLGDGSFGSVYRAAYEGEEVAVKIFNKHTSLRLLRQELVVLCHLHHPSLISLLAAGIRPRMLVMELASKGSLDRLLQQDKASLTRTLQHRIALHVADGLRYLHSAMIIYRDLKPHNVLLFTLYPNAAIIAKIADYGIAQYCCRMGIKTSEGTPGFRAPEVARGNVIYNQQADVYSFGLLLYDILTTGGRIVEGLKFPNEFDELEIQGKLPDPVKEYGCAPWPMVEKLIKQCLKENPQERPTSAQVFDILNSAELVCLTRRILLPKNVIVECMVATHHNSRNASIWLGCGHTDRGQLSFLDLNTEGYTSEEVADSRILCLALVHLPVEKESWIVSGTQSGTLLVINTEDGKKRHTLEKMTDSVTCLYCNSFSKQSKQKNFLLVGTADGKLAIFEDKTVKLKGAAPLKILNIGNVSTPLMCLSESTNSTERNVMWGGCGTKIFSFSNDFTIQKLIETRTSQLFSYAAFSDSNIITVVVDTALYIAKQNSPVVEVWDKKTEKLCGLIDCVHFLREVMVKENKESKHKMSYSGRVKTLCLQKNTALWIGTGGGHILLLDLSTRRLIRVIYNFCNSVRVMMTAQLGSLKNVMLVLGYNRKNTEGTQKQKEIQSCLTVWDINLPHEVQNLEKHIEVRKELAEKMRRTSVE
The assay can be described thus: LRRK2 HiBit degradation assay (Nano-Glo Dual Luciferase) in HEK293 cells with HiBit-tagged endogenous LRRK2. It counts as cell-based. To be noted: for Dmax: maximal degradation. The method in brief: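 HEK293 cells carrying endogenous C-terminally HiBit-tagged LRRK2 and stably expressing CMV-driven firefly luciferase were treated for 24 h at 37° C with an 11-point 1:3 series from a 1 μM final top concentration. Nano-Glo Dual Luciferase read LRRK2-HiBit against firefly signal. Alamar Blue gave viability, and signals were normalized to DMSO median before curve fitting.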

Setting [1] is: Table 2, HiBit-tagged LRRK2 in HEK293 cells, 24 hours treatment, starting concentration 1 μM.
The mark [2] stands for this setting: HEK293, Table 2, HiBit-tagged LRRK2 in HEK293 cells, 24 hours treatment.
Setting [3] is: HEK293, Table 3, comparison with direct comparators.
Where [4] appears, read: Table 3, comparison with direct comparators, HiBit-tagged LRRK2 in HEK293 cells, 24 hours treatment.
Setting [5] is: Table 2, HiBit-tagged LRRK2 in HEK293 cells, 24 hours treatment.

Under setting [1], `Cn1c(=O)n(C2CCC(=O)NC2=O)c2cc(N3CCC(OC4CCC(CN5CCN(c6cc(-c7n[nH]c8ccc(OC9(C)CC9)cc78)ncn6)CC5)CC4)CC3)ccc21` (stereo not shown) [Compound 5, 3-[3-methyl-2-oxo-6-(4-{[(1r,4r)-4-[(4-{6-[5-(1-methylcyclopropoxy)-1H-indazol-3-yl]pyrimidin-4-yl}piperazin-1-yl)methyl]cyclohexyl]oxy}piperidin-1-yl)-2,3-dihydro-1H-1,3-benzodiazol-1-yl]piperidine-2,6-dione] came in with a DC50 not below 1000 nM.

As to `CC1(Oc2ccc3[nH]nc(-c4cc(N5CCC(CN6CCN(CC7CCN(c8cccc9c8ncn9C8CCC(=O)NC8=O)CC7)CC6(C)C)CC5)ncn4)c3c2)CC1` (stereo not shown) [Compound 69, 3-{4-[4-({3,3-dimethyl-4-[(1-{6-[5-(1-methylcyclopropoxy)-1H-indazol-3-yl]pyrimidin-4-yl}piperidin-4-yl)methyl]piperazin-1-yl}methyl)piperidin-1-yl]-1H-1,3-benzodiazol-1-yl}piperidine-2,6-dione], the Dmax reads like this: under setting [2], 50%; under setting [3], 50%. Besides, the DC50 is 5 nM under setting [1] and 5 nM under setting [4].

For the compound `CC(C)Oc1cc2c(-c3cc(N4CCC(O[C@H]5C[C@H](OC6CCN(c7ccc8c(c7)n(C)c(=O)n8C7CCC(=O)NC7=O)CC6)C5)CC4)ncn3)n[nH]c2cn1` (single isomer, unassigned) [Compound 31, rel-3-(3-methyl-2-oxo-5-{4-[(1r,3r)-3-[(1-{6-[5-(propan-2-yloxy)-1H-pyrazolo[3,4-c]pyridin-3-yl]pyrimidin-4-yl}piperidin-4-yl)oxy]cyclobutoxy]piperidin-1-yl}-2,3-dihydro-1H-1,3-benzodiazol-1-yl)piperidine-2,6-dione], the half-maximal degradation concentration (DC50) under setting [1] turned out to be 160 nM. Further, under setting [5], the Dmax was determined as 61%.

As to `CC1(Oc2ccc3[nH]nc(-c4cc(N5CCC(CN6CCN(CC7CCN(c8ccc9c(c8)ncn9C8CCC(=O)NC8=O)CC7)CC6(C)C)CC5)ncn4)c3c2)CC1` (stereo not shown) [Compound 13, 3-{5-[4-({3,3-dimethyl-4-[(1-{6-[5-(1-methylcyclopropoxy)-1H-indazol-3-yl]pyrimidin-4-yl}piperidin-4-yl)methyl]piperazin-1-yl}methyl)piperidin-1-yl]-1H-1,3-benzodiazol-1-yl}piperidine-2,6-dione], the greatest degradation seen (Dmax) runs as follows: under setting [2], 64%; under setting [3], 64%. The DC50 was 1 nM under setting [1] and 1 nM under setting [4].

`CC1(Oc2ccc3[nH]nc(-c4cc(N5CCC(CN6CCN(CC7CCN(c8cc9ncn(C%10CCC(=O)NC%10=O)c9cc8F)CC7)CC6(C)C)CC5)ncn4)c3c2)CC1` (stereo not shown) [Compound 40, 3-{5-[4-({3,3-dimethyl-4-[(1-{6-[5-(1-methylcyclopropoxy)-1H-indazol-3-yl]pyrimidin-4-yl}piperidin-4-yl)methyl]piperazin-1-yl}methyl)piperidin-1-yl]-6-fluoro-1H-1,3-benzodiazol-1-yl}piperidine-2,6-dione]: the greatest degradation seen (Dmax) is, setting by setting: under setting [2], 59%; under setting [3], 59%. The same compound displayed a DC50 under setting [1] of 4.2 nM and a 50% degradation concentration (DC50) under setting [4] of 4.2 nM.

Under setting [1], `Cn1c(=O)n(C2CCC(=O)NC2=O)c2cc(N3CCC(CN4CCN(CC5CCN(c6cc(-c7n[nH]c8ccc(OC9(C)CC9)cc78)ncn6)CC5)C(C)(C)C4)CC3)ccc21` (stereo not shown) [Compound 17, 3-{6-[4-({3,3-dimethyl-4-[(1-{6-[5-(1-methylcyclopropoxy)-1H-indazol-3-yl]pyrimidin-4-yl}piperidin-4-yl)methyl]piperazin-1-yl}methyl)piperidin-1-yl]-3-methyl-2-oxo-2,3-dihydro-1H-1,3-benzodiazol-1-yl}piperidine-2,6-dione] gave a DC50 not below 1000 nM.

`Cc1nc2cc(N3CCC(O[C@H]4CC[C@H](CN5CCN(c6cc(-c7n[nH]c8ccc(OC9(C)CC9)cc78)ncn6)CC5)CC4)CC3)ccc2n1C1CCC(=O)NC1=O` (stereo partly drawn) [Compound 42, rel-3-[2-methyl-5-(4-{[(1r,4r)-4-[(4-{6-[5-(1-methylcyclopropoxy)-1H-indazol-3-yl]pyrimidin-4-yl}piperazin-1-yl)methyl]cyclohexyl]oxy}piperidin-1-yl)-1H-1,3-benzodiazol-1-yl]piperidine-2,6-dione] gave a Dmax under setting [2] of 42% and a Dmax under setting [3] of 52%. Besides, the DC50 turned out to be 5.2 nM under setting [1] and 5.2 nM under setting [4].

As for `Cn1c(=O)n(C2CCC(=O)NC2=O)c2cccc(N3CCC(CN4CCN(CC5CCN(c6cc(-c7n[nH]c8cnc(OC9(C)CC9)cc78)ncn6)CC5)C(C)(C)C4)CC3)c21` (stereo not shown) [Compound 47, 3-{4-[4-({3,3-dimethyl-4-[(1-{6-[5-(1-methylcyclopropoxy)-1H-pyrazolo[3,4-c]pyridin-3-yl]pyrimidin-4-yl}piperidin-4-yl)methyl]piperazin-1-yl}methyl)piperidin-1-yl]-3-methyl-2-oxo-2,3-dihydro-1H-1,3-benzodiazol-1-yl}piperidine-2,6-dione], the Dmax under setting [2] came out at 100%. For the same compound, under setting [1], the half-maximal degradation concentration (DC50) was found to be 24 nM.

`CC1(Oc2ccc3[nH]nc(-c4cc(N5CCC(CN6CCN(CC7CCN(c8ccc9c(c8)ncn9C8CCC(=O)NC8=O)CC7)CC6)CC5)ncn4)c3c2)CC1` (stereo not shown) [Compound 11, 3-{5-[4-({4-[(1-{6-[5-(1-methylcyclopropoxy)-1H-indazol-3-yl]pyrimidin-4-yl}piperidin-4-yl)methyl]piperazin-1-yl}methyl)piperidin-1-yl]-1H-1,3-benzodiazol-1-yl}piperidine-2,6-dione]: the greatest degradation seen (Dmax) reads like this: under setting [2], 62%; under setting [3], 62%. This compound showed a DC50 under setting [1] of 1.6 nM and a DC50 under setting [4] of 1.6 nM.

For the compound `CC(C)n1c(=O)n(C2CCC(=O)NC2=O)c2ccc(N3CCC(O[C@H]4CC[C@H](CN5CCN(c6cc(-c7n[nH]c8ccc(OC9(C)CC9)cc78)ncn6)CC5)CC4)CC3)cc21` (single isomer, unassigned) [Compound 49, rel-3-[2-oxo-3-(propan-2-yl)-5-(4-{[(1r,4r)-4-[(4-{6-[5-(1-methylcyclopropoxy)-1H-indazol-3-yl]pyrimidin-4-yl}piperazin-1-yl)methyl]cyclohexyl]oxy}piperidin-1-yl)-2,3-dihydro-1H-1,3-benzodiazol-1-yl]piperidine-2,6-dione], the Dmax under setting [2] came to 55%. Besides, half-maximal degradation under setting [1] (DC50) was put at 0.44 nM.

Take `Cn1c(=O)n(C2CCC(=O)NC2=O)c2ccc(N3CCC(OC[C@H]4C[C@H](OC5CCN(c6cc(-c7n[nH]c8cnc(OC9(C)CC9)cc78)ncn6)CC5)C4)CC3)cc21` (single isomer, unassigned) [Compound 32, rel-3-[3-methyl-2-oxo-5-(4-{[(1r,3r)-3-[(1-{6-[5-(1-methylcyclopropoxy)-1H-pyrazolo[3,4-c]pyridin-3-yl]pyrimidin-4-yl}piperidin-4-yl)oxy]cyclobutyl]methoxy}piperidin-1-yl)-2,3-dihydro-1H-1,3-benzodiazol-1-yl]piperidine-2,6-dione]: it took 0.33 nM to reach half-maximal degradation under setting [1] (DC50). Further, the Dmax under setting [5] is 51%.

In the case of `CC1(Oc2ccc3[nH]nc(-c4cc(N5CCN(C[C@H]6CC[C@H](OC7CCN(c8cc(F)c9c(c8)ncn9C8CCC(=O)NC8=O)CC7)CC6)CC5)ncn4)c3c2)CC1` (stereo partly drawn) [Compound 43, rel-3-[7-fluoro-5-(4-{[(1r,4r)-4-[(4-{6-[5-(1-methylcyclopropoxy)-1H-indazol-3-yl]pyrimidin-4-yl}piperazin-1-yl)methyl]cyclohexyl]oxy}piperidin-1-yl)-1H-1,3-benzodiazol-1-yl]piperidine-2,6-dione], the Dmax under setting [2] stood at 49% and the maximal degradation (Dmax) under setting [3] was 49%. The DC50 is, setting by setting: under setting [1], 6.2 nM; under setting [4], 6.2 nM.

On to `Cn1c(=O)n(C2CCC(=O)NC2=O)c2ccc(N3CCC(O[C@H]4C[C@H](OC5CCN(c6cc(-c7n[nH]c8cnc(OC9(C)CC9)cc78)ncn6)CC5)C4)CC3)cc21` (single isomer, unassigned) [Compound 30, rel-3-(3-methyl-2-oxo-5-{4-[(1r,3r)-3-[(1-{6-[5-(1-methylcyclopropoxy)-1H-pyrazolo[3,4-c]pyridin-3-yl]pyrimidin-4-yl}piperidin-4-yl)oxy]cyclobutoxy]piperidin-1-yl}-2,3-dihydro-1H-1,3-benzodiazol-1-yl)piperidine-2,6-dione], for which the half-maximal degradation concentration (DC50) under setting [1] amounted to 0.065 nM. This compound also came in with a Dmax under setting [5] of 48%.

As to `CC(C)n1c(=O)n(C2CCC(=O)NC2=O)c2ccc(N3CCC(O[C@H]4CC[C@@H](CN5CCN(c6cc(-c7n[nH]c8cnc(OC9(C)CC9)cc78)ncn6)CC5)CC4)CC3)cc21` (single isomer, unassigned) [Compound 53, rel-3-[2-oxo-3-(propan-2-yl)-5-(4-{[(1r,4r)-4-[(4-{6-[5-(1-methylcyclopropoxy)-1H-pyrazolo[3,4-c]pyridin-3-yl]pyrimidin-4-yl}piperazin-1-yl)methyl]cyclohexyl]oxy}piperidin-1-yl)-2,3-dihydro-1H-1,3-benzodiazol-1-yl]piperidine-2,6-dione], the Dmax under setting [2] turned out to be 54%. Under setting [1], this compound yielded a DC50 of 0.59 nM.

The compound `CC(C)Oc1cc2c(-c3cc(N4CCN(C[C@H]5CC[C@H](OC6CCN(c7ccc8c(c7)n(C)c(=O)n8C7CCC(=O)NC7=O)CC6)CC5)CC4)ncn3)n[nH]c2cn1` (single isomer, unassigned) [Compound 20, rel-3-[3-methyl-2-oxo-5-(4-{[(1r,4r)-4-[(4-{6-[5-(propan-2-yloxy)-1H-pyrazolo[3,4-c]pyridin-3-yl]pyrimidin-4-yl}piperazin-1-yl)methyl]cyclohexyl]oxy}piperidin-1-yl)-2,3-dihydro-1H-1,3-benzodiazol-1-yl]piperidine-2,6-dione] displayed a Dmax under setting [2] of 40%. The compound further registered a DC50 under setting [1] of 0.56 nM.
